ChEMBL document CHEMBL1147390, “The structure of palominol by interpretation of two-dimensional NMR shift correlation experiments: isolation and structure determination of isopalominol” (J Nat Prod, 1993)
Values after ≈ are worked out from the molar mass of the structure shown. Active and inactive are the calls of the source. The calls are words filed in the database; no cut-off is given here.

Columns and labels:
[1] = tested on: Staphylococcus aureus; test: Antimicrobial activity against Staphylococcus aureus at 5 ug/disk; type: functional, organism-based
[2] = tested on: Escherichia coli; test: Antimicrobial activity against Escherichia coli at 5 ug/disk; type: functional, organism-based
[3] = tested on: Staphylococcus aureus; test: Antimicrobial activity against Staphylococcus aureus at 10 ug/disk; type: functional, organism-based
[4] = tested on: Staphylococcus aureus; test: Antimicrobial activity against Staphylococcus aureus at 1 ug/disk; type: functional, organism-based
[5] = tested on: Escherichia coli; test: Antimicrobial activity against Escherichia coli at 10 ug/disk; type: functional, organism-based
[6] = tested on: Escherichia coli; test: Antimicrobial activity against Escherichia coli at 1 ug/disk; type: functional, organism-based
[7] = tested on: HCT-116; test: Cytotoxicity against human HCT116 cells; type: functional, cell-based

CC(C)=C1[C@H](O)C[C@@]2(C)C/C=C(\C)CC/C=C(\C)CC[C@H]12 (relative stereo) [ISOPALOMINOL] was tested, and the Activity [1] was “inactive”, the Activity [2] was “inactive” and the Activity [3] was “inactive”. For the same compound, the Activity [4] was “inactive”, the Activity [5] was “inactive” and the Activity [6] was “inactive”. The IC50 [7] was 30 µg/mL (≈ 104 µM).

With CC(C)=C1C(=O)C[C@@]2(C)C/C=C(\C)CC/C=C(\C)CC[C@H]12 [DOLABELLANE] the Activity [1] was “inactive”, the Activity [2] was “inactive” and the Activity [3] was “inactive”. For the same compound, the Activity [4] was “inactive”, the Activity [5] was “inactive” and the Activity [6] was “inactive”. The IC50 [7] was 10 µg/mL (≈ 34.9 µM).

With C/C1=C\C[C@]2(C)CC=C(C(C)(C)O)[C@H]2CC/C(C)=C/CC1 [PALOMINOL] the Activity [1] was “inactive”, the Activity [2] was “inactive” and the Activity [3] was “inactive”. The Activity [4] was “inactive”, the Activity [5] was “inactive” and the Activity [6] was “inactive”. The IC50 [7] was 10 µg/mL (≈ 34.7 µM).

For CC(C)=C1[C@H]2CC/C(C)=C/CC/C(C)=C/C[C@]2(C)C[C@@H]1O (relative stereo), the Activity [1] was “inactive”, the Activity [2] was “inactive” and the Activity [3] was “inactive”. For the same compound, the Activity [4] was “inactive”, the Activity [5] was “inactive” and the Activity [6] was “inactive”. For the same compound, the IC50 [7] was 9 µg/mL (≈ 31.2 µM).
